PubChem BioAssay (NCI)
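The compound was tested at five concentrations on cells cultured in 96-well plates, with a 48-hour exposure period. GI50 marks 50% less growth. Definition used: TGI = concentration required for complete inhibition of growth.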

Columns and labels:
Assay in all cases: growth of human tumour cells (NCI), 48 h
786-0 renal = system: 786-0 renal
A498 renal = system: A498 renal
ACHN renal = system: ACHN renal
BT-549 breast = system: BT-549 breast
COLO 205 colon = system: COLO 205 colon
KM12 colon = system: KM12 colon
M14 melanoma = system: M14 melanoma
MALME-3M melanoma = system: MALME-3M melanoma
NCI-H23 lung = system: NCI-H23 lung
PC-3 prostate = system: PC-3 prostate
SF-268 CNS = system: SF-268 CNS
SF-539 CNS = system: SF-539 CNS
SK-MEL-2 melanoma = system: SK-MEL-2 melanoma
SK-OV-3 ovarian = system: SK-OV-3 ovarian
SN12C renal = system: SN12C renal
SR leukemia = system: SR leukemia
T-47D breast = system: T-47D breast
UACC-257 melanoma = system: UACC-257 melanoma

## Cc1c(F)c(N)c2c(=O)cc(-c3ccc(N)c(F)c3)oc2c1F
786-0 renal
  TGI: 34.9 µM
A498 renal
  TGI: 8.74 µM
ACHN renal
  TGI: 50.4 µM
BT-549 breast
  TGI: 36.8 µM
COLO 205 colon
  TGI: > 100 µM
KM12 colon
  TGI: > 100 µM
M14 melanoma
  TGI: > 100 µM
MALME-3M melanoma
  TGI: > 91.4 µM
NCI-H23 lung
  TGI: 68.4 µM
PC-3 prostate
  TGI: 45.6 µM
SF-268 CNS
  TGI: 76.7 µM
SF-539 CNS
  TGI: 32.3 µM
SK-MEL-2 melanoma
  TGI: 81.2 µM
SK-OV-3 ovarian
  TGI: 38.1 µM
SN12C renal
  TGI: 56.7 µM
SR leukemia
  TGI: 82.8 µM
T-47D breast
  TGI: 16 µM
UACC-257 melanoma
  TGI: > 100 µM

## CC(=O)c1cccc(Nc2nc3ccc(Cl)cc3c3[nH]c4ccccc4c23)c1
786-0 renal
  TGI: 11.3 µM
A498 renal
  GI50: 2.15 µM
  TGI: 7.26 µM
ACHN renal
  TGI: 40.6 µM
BT-549 breast
  TGI: > 100 µM
COLO 205 colon
  TGI: 12.8 µM
KM12 colon
  TGI: > 100 µM
M14 melanoma
  TGI: > 100 µM
MALME-3M melanoma
  TGI: > 100 µM
NCI-H23 lung
  TGI: > 73.8 µM
PC-3 prostate
  TGI: 30.9 µM
SF-268 CNS
  TGI: 36.9 µM
SF-539 CNS
  TGI: 30.1 µM
SK-MEL-2 melanoma
  TGI: 30.8 µM
SK-OV-3 ovarian
  TGI: 15.9 µM
SN12C renal
  TGI: > 90.8 µM
SR leukemia
  GI50: 4.21 µM
  TGI: > 100 µM
T-47D breast
  TGI: 50.6 µM
UACC-257 melanoma
  TGI: > 88.2 µM

## O=[N+]([O-])c1cc2c(c([N+](=O)[O-])c1)NCc1ccccc1O2
786-0 renal
  TGI: > 100 µM
A498 renal
  TGI: > 100 µM
ACHN renal
  TGI: > 100 µM
BT-549 breast
  TGI: > 100 µM
COLO 205 colon
  TGI: > 100 µM
KM12 colon
  TGI: > 100 µM
MALME-3M melanoma
  TGI: > 100 µM
NCI-H23 lung
  TGI: > 100 µM
PC-3 prostate
  TGI: > 100 µM
SF-268 CNS
  TGI: > 100 µM
SF-539 CNS
  TGI: > 100 µM
SK-MEL-2 melanoma
  TGI: > 100 µM
SN12C renal
  TGI: > 100 µM
SR leukemia
  TGI: > 100 µM
T-47D breast
  TGI: > 100 µM
UACC-257 melanoma
  TGI: > 100 µM

## Cc1ccc(N2CCC3(CC2)OCCO3)cc1
786-0 renal
  TGI: > 100 µM
A498 renal
  TGI: > 100 µM
ACHN renal
  TGI: > 100 µM
BT-549 breast
  TGI: > 100 µM
COLO 205 colon
  TGI: > 100 µM
KM12 colon
  TGI: > 100 µM
M14 melanoma
  TGI: > 100 µM
MALME-3M melanoma
  TGI: > 100 µM
NCI-H23 lung
  TGI: > 100 µM
PC-3 prostate
  TGI: > 100 µM
SF-268 CNS
  TGI: > 100 µM
SF-539 CNS
  TGI: > 100 µM
SK-MEL-2 melanoma
  TGI: > 100 µM
SK-OV-3 ovarian
  TGI: > 100 µM
SN12C renal
  TGI: > 100 µM
SR leukemia
  TGI: > 100 µM
T-47D breast
  TGI: > 100 µM
UACC-257 melanoma
  TGI: > 100 µM

## O=C(Cc1ccc(Cl)cc1)Nc1ccc2oc(-c3ccccc3)nc2c1
786-0 renal
  TGI: > 100 µM
A498 renal
  TGI: > 100 µM
ACHN renal
  TGI: > 100 µM
BT-549 breast
  TGI: > 100 µM
COLO 205 colon
  TGI: > 100 µM
KM12 colon
  TGI: > 100 µM
M14 melanoma
  TGI: > 100 µM
MALME-3M melanoma
  TGI: > 100 µM
NCI-H23 lung
  TGI: > 100 µM
PC-3 prostate
  TGI: > 100 µM
SF-268 CNS
  TGI: > 100 µM
SF-539 CNS
  TGI: > 100 µM
SK-MEL-2 melanoma
  TGI: > 100 µM
SK-OV-3 ovarian
  TGI: > 100 µM
SN12C renal
  TGI: > 100 µM
SR leukemia
  TGI: > 100 µM
T-47D breast
  TGI: > 100 µM
UACC-257 melanoma
  TGI: > 100 µM

## CN1CCCOC(c2ccc([N+](=O)[O-])cc2)O1 (configuration not stated)
786-0 renal
  TGI: > 100 µM
A498 renal
  TGI: > 100 µM
ACHN renal
  TGI: > 100 µM
BT-549 breast
  TGI: > 100 µM
COLO 205 colon
  TGI: > 100 µM
KM12 colon
  TGI: > 100 µM
M14 melanoma
  TGI: > 100 µM
MALME-3M melanoma
  TGI: > 100 µM
NCI-H23 lung
  TGI: > 100 µM
PC-3 prostate
  TGI: > 100 µM
SF-268 CNS
  TGI: > 100 µM
SF-539 CNS
  TGI: > 100 µM
SK-MEL-2 melanoma
  TGI: > 100 µM
SK-OV-3 ovarian
  TGI: > 100 µM
SN12C renal
  TGI: > 100 µM
SR leukemia
  TGI: > 100 µM
T-47D breast
  TGI: > 100 µM
UACC-257 melanoma
  TGI: > 100 µM

## COc1ccc(N2C(=O)C(C)SC2c2cc3cc(Br)ccc3nc2Cl)cc1 (configuration not stated)
786-0 renal
  TGI: > 100 µM
A498 renal
  TGI: > 100 µM
ACHN renal
  TGI: > 100 µM
BT-549 breast
  TGI: 99.7 µM
COLO 205 colon
  TGI: > 100 µM
KM12 colon
  TGI: > 100 µM
M14 melanoma
  TGI: > 100 µM
MALME-3M melanoma
  TGI: > 100 µM
NCI-H23 lung
  TGI: > 100 µM
PC-3 prostate
  TGI: > 100 µM
SF-268 CNS
  TGI: > 100 µM
SF-539 CNS
  TGI: 55.7 µM
SK-MEL-2 melanoma
  TGI: 48.4 µM
SK-OV-3 ovarian
  TGI: > 100 µM
SN12C renal
  TGI: > 100 µM
SR leukemia
  TGI: 72.3 µM
T-47D breast
  TGI: > 100 µM
UACC-257 melanoma
  TGI: > 100 µM

## Nc1nc2n[nH]nc2c(=O)[nH]1
786-0 renal
  TGI: > 100 µM
A498 renal
  TGI: 32.8 µM
ACHN renal
  TGI: > 59.7 µM
BT-549 breast
  TGI: 37.8 µM
COLO 205 colon
  TGI: 24.3 µM
KM12 colon
  TGI: > 100 µM
M14 melanoma
  TGI: 2.98 µM
MALME-3M melanoma
  TGI: 16.8 µM
NCI-H23 lung
  TGI: > 100 µM
PC-3 prostate
  TGI: > 100 µM
SF-268 CNS
  TGI: > 100 µM
SF-539 CNS
  TGI: 1.96 µM
SK-MEL-2 melanoma
  TGI: 1.69 µM
SK-OV-3 ovarian
  TGI: 9.21 µM
SN12C renal
  TGI: > 100 µM
SR leukemia
  TGI: 20.4 µM
T-47D breast
  TGI: 10.5 µM
UACC-257 melanoma
  TGI: 56.2 µM

## COc1ccc(OC2OC(COC(c3ccccc3)(c3ccc(OC)cc3)c3ccc(OC)cc3)C(O)C(O)C2O)cc1 (configuration not stated)
786-0 renal
  TGI: 5.87 µM
A498 renal
  TGI: 25.3 µM
ACHN renal
  TGI: 14.3 µM
BT-549 breast
  TGI: 27 µM
COLO 205 colon
  TGI: 9.85 µM
KM12 colon
  TGI: 14.7 µM
M14 melanoma
  TGI: 7.05 µM
MALME-3M melanoma
  TGI: 21.2 µM
NCI-H23 lung
  TGI: 15.3 µM
PC-3 prostate
  TGI: 9.59 µM
SF-268 CNS
  TGI: 11 µM
SF-539 CNS
  TGI: 17 µM
SK-MEL-2 melanoma
  TGI: 15 µM
SK-OV-3 ovarian
  TGI: 18.8 µM
SN12C renal
  TGI: 6.59 µM
SR leukemia
  TGI: > 100 µM
T-47D breast
  TGI: 21.4 µM
UACC-257 melanoma
  TGI: 20.1 µM

## COc1ccc(C2=NN(C(N)=S)C(c3ccccc3)C2)cc1 (configuration not stated)
786-0 renal
  TGI: > 100 µM
A498 renal
  TGI: 70.8 µM
ACHN renal
  TGI: > 100 µM
BT-549 breast
  TGI: > 100 µM
COLO 205 colon
  TGI: 58.7 µM
KM12 colon
  TGI: > 100 µM
M14 melanoma
  TGI: > 100 µM
MALME-3M melanoma
  TGI: 82.2 µM
NCI-H23 lung
  TGI: > 100 µM
PC-3 prostate
  TGI: 97.5 µM
SF-268 CNS
  TGI: > 100 µM
SF-539 CNS
  TGI: > 100 µM
SK-MEL-2 melanoma
  TGI: 78.4 µM
SK-OV-3 ovarian
  TGI: > 100 µM
SN12C renal
  TGI: > 100 µM
SR leukemia
  TGI: 77.3 µM
T-47D breast
  TGI: > 100 µM
UACC-257 melanoma
  TGI: 99.1 µM

## Nc1[nH]c(=S)c2c(N)n[nH]c2c1C(=O)Nc1ccccc1
786-0 renal
  TGI: > 100 µM
A498 renal
  TGI: > 100 µM
BT-549 breast
  TGI: > 100 µM
COLO 205 colon
  TGI: > 100 µM
KM12 colon
  TGI: > 100 µM
M14 melanoma
  TGI: > 100 µM
MALME-3M melanoma
  TGI: > 100 µM
NCI-H23 lung
  TGI: > 100 µM
PC-3 prostate
  TGI: > 100 µM
SF-268 CNS
  TGI: > 100 µM
SF-539 CNS
  TGI: > 100 µM
SK-MEL-2 melanoma
  TGI: > 100 µM
SK-OV-3 ovarian
  TGI: > 100 µM
SN12C renal
  TGI: > 100 µM
SR leukemia
  TGI: > 100 µM
T-47D breast
  TGI: > 100 µM
UACC-257 melanoma
  TGI: > 100 µM
